In PubChem BioAssay (NCI):
Where “and” joins values, the source holds several entries; their conditions need not be identical. Identical values can stand only once.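 The compound was tested at five concentrations on cells cultured in 96-well plates, with a 48-hour exposure period. GI50 marks 50% less growth. Definition used: TGI = concentration required for complete inhibition of growth.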

Key:
Test in all cases: NCI anticancer screen, dose series, 48 h
OVCAR-8 ovarian = tested on: OVCAR-8 ovarian
HL-60(TB) leukemia = tested on: HL-60(TB) leukemia
A549 NSCLC = tested on: A549 NSCLC
SW-620 colon = tested on: SW-620 colon
OVCAR-4 ovarian = tested on: OVCAR-4 ovarian
OVCAR-5 ovarian = tested on: OVCAR-5 ovarian
UACC-257 melanoma = tested on: UACC-257 melanoma
SR leukemia = tested on: SR leukemia
786-0 renal = tested on: 786-0 renal
DU-145 prostate = tested on: DU-145 prostate

CC(C)(CN1C(=O)C(Cl)=C(Cl)C1=O)CN1C(=O)C(Cl)=C(Cl)C1=O
TGI (OVCAR-8 ovarian): 14.7 µM
TGI (HL-60(TB) leukemia): 2.84 µM
TGI (A549 NSCLC): > 72.7 µM
TGI (SW-620 colon): 15.3 µM
TGI (OVCAR-4 ovarian): 43.4 µM
TGI (OVCAR-5 ovarian): 42.7 µM
TGI (UACC-257 melanoma): 29 µM
TGI (SR leukemia): 36 µM
TGI (786-0 renal): 28.6 µM

COc1ccc2nc3cc(Cl)ccc3c(NCCCNCCO)c2c1
GI50 (OVCAR-8 ovarian): 415 nM
TGI (OVCAR-8 ovarian): 2.45 µM
GI50 (HL-60(TB) leukemia): 613 nM
TGI (HL-60(TB) leukemia): 2.64 µM
GI50 (A549 NSCLC): 0.378 µM
TGI (A549 NSCLC): 2.06 µM
GI50 (SW-620 colon): 0.304 µM
TGI (SW-620 colon): 2.68 µM
GI50 (OVCAR-4 ovarian): 484 nM
TGI (OVCAR-4 ovarian): 2.87 µM
GI50 (OVCAR-5 ovarian): 0.531 µM
TGI (OVCAR-5 ovarian): 3.28 µM
GI50 (DU-145 prostate): 0.48 µM
TGI (DU-145 prostate): 2.77 µM
GI50 (UACC-257 melanoma): 1820 nM
TGI (UACC-257 melanoma): 3.48 µM
GI50 (786-0 renal): 531 nM
TGI (786-0 renal): 1.96 µM

COc1cc(C2c3cc4c(cc3[C@@H](NCCN(C)C)C3COC(=O)[C@H]23)OCO4)cc(OC)c1O (stereo partly specified)
GI50 (OVCAR-8 ovarian): 265 nM and 1080 nM
TGI (OVCAR-8 ovarian): 1.72 µM and 2.72 µM
TGI (HL-60(TB) leukemia): 0.124 µM and 0.121 µM
TGI (SW-620 colon): 3.51 µM and 3.71 µM
TGI (OVCAR-4 ovarian): 5.19 µM and 13.3 µM
GI50 (UACC-257 melanoma): 526 nM and 1620 nM
TGI (UACC-257 melanoma): 4.14 µM and 6.16 µM
GI50 (SR leukemia): 14.4 µM
TGI (SR leukemia): > 100 µM
GI50 (786-0 renal): 35.5 nM and 132 nM
TGI (786-0 renal): 0.457 µM and 1.1 µM

Cn1cc(/C=C\[N+](=O)[O-])c2ccccc21
GI50 (OVCAR-8 ovarian): 26900 nM
TGI (OVCAR-8 ovarian): 86.1 µM
GI50 (A549 NSCLC): 46.4 µM
TGI (A549 NSCLC): > 100 µM
GI50 (OVCAR-5 ovarian): > 100 µM
TGI (OVCAR-5 ovarian): > 100 µM
GI50 (DU-145 prostate): 29.7 µM
TGI (DU-145 prostate): 81.7 µM
GI50 (UACC-257 melanoma): 33100 nM
TGI (UACC-257 melanoma): > 100 µM
GI50 (786-0 renal): > 100000 nM
TGI (786-0 renal): > 100 µM

Oc1ccc(Br)cc1C=Nc1cccc(C(F)(F)F)c1
TGI (OVCAR-8 ovarian): > 100 µM
TGI (HL-60(TB) leukemia): 34.4 µM
TGI (A549 NSCLC): > 100 µM
TGI (SW-620 colon): > 100 µM
TGI (OVCAR-4 ovarian): > 100 µM
TGI (OVCAR-5 ovarian): > 100 µM
TGI (DU-145 prostate): > 100 µM
TGI (UACC-257 melanoma): > 100 µM
TGI (786-0 renal): > 100 µM

CCCCC1=CSC(c2ccccc2)=C(c2ccccc2)S1
TGI (OVCAR-8 ovarian): > 100 µM
TGI (A549 NSCLC): > 100 µM
TGI (SW-620 colon): > 100 µM
TGI (OVCAR-4 ovarian): > 100 µM
TGI (786-0 renal): > 100 µM

COc1cc([N+](=O)[O-])c(OC)cc1-c1nc2sc(C)c(C)n2c1/C(N)=N/C(=N)N
GI50 (HL-60(TB) leukemia): > 100000 nM
TGI (HL-60(TB) leukemia): > 100 µM
GI50 (A549 NSCLC): > 100 µM
TGI (A549 NSCLC): > 100 µM
GI50 (SW-620 colon): 9.8 µM
TGI (SW-620 colon): > 100 µM
GI50 (OVCAR-5 ovarian): > 100 µM
TGI (OVCAR-5 ovarian): > 100 µM
GI50 (DU-145 prostate): > 100 µM
TGI (DU-145 prostate): > 100 µM
GI50 (UACC-257 melanoma): 1020 nM
TGI (UACC-257 melanoma): > 100 µM
GI50 (786-0 renal): > 100000 nM
TGI (786-0 renal): > 100 µM

Cc1ccc(NC(=O)CCc2nc(=S)[nH][nH]2)cc1
TGI (OVCAR-8 ovarian): > 100 µM
TGI (HL-60(TB) leukemia): > 100 µM
TGI (A549 NSCLC): > 100 µM
TGI (SW-620 colon): > 100 µM
TGI (OVCAR-4 ovarian): > 100 µM
TGI (OVCAR-5 ovarian): > 100 µM
TGI (UACC-257 melanoma): > 100 µM
TGI (SR leukemia): > 100 µM
TGI (786-0 renal): > 100 µM

CN=c1ss/c(=N\C(=S)N(C)C)n1C
TGI (OVCAR-8 ovarian): > 100 µM
TGI (HL-60(TB) leukemia): > 100 µM
TGI (A549 NSCLC): > 100 µM
TGI (SW-620 colon): > 100 µM
TGI (OVCAR-4 ovarian): > 100 µM
TGI (OVCAR-5 ovarian): > 100 µM
TGI (UACC-257 melanoma): > 100 µM
TGI (SR leukemia): > 100 µM
TGI (786-0 renal): > 100 µM

CCN1CCN(c2nc(C)cc(N(CCCNc3ccnc4cc(Cl)ccc34)Cc3ccc4c(c3)OCO4)n2)CC1
GI50 (OVCAR-8 ovarian): 2120 nM
TGI (OVCAR-8 ovarian): 6.06 µM
GI50 (HL-60(TB) leukemia): 2110 nM
TGI (HL-60(TB) leukemia): 3.96 µM
GI50 (A549 NSCLC): 1.97 µM
TGI (A549 NSCLC): 7.42 µM
GI50 (SW-620 colon): 1.4 µM
TGI (SW-620 colon): 3.12 µM
GI50 (OVCAR-4 ovarian): 1750 nM
TGI (OVCAR-4 ovarian): 7.12 µM
GI50 (OVCAR-5 ovarian): 2.57 µM
TGI (OVCAR-5 ovarian): 7.77 µM
GI50 (UACC-257 melanoma): 1800 nM
TGI (UACC-257 melanoma): 3.49 µM
GI50 (SR leukemia): 0.339 µM
TGI (SR leukemia): 1.58 µM
GI50 (786-0 renal): 1460 nM
TGI (786-0 renal): 2.95 µM

COc1cc[c]([Sn]([c]2ccc(OC)cc2)([c]2ccc(OC)cc2)[c]2ccc(OC)cc2)cc1
GI50 (OVCAR-8 ovarian): 27100 nM
TGI (OVCAR-8 ovarian): > 100 µM
GI50 (A549 NSCLC): 25.9 µM
TGI (A549 NSCLC): > 100 µM
GI50 (SW-620 colon): 18.9 µM
TGI (SW-620 colon): 55.9 µM
GI50 (OVCAR-4 ovarian): 16800 nM
TGI (OVCAR-4 ovarian): 62.8 µM
GI50 (OVCAR-5 ovarian): 33.3 µM
TGI (OVCAR-5 ovarian): > 100 µM
GI50 (786-0 renal): 18100 nM
TGI (786-0 renal): 43.5 µM

Nc1nnc2c(-c3ccccc3)[nH]nc2n1
TGI (OVCAR-8 ovarian): > 100 µM
TGI (HL-60(TB) leukemia): > 100 µM
TGI (A549 NSCLC): > 100 µM
TGI (SW-620 colon): > 100 µM
TGI (OVCAR-4 ovarian): > 100 µM
TGI (OVCAR-5 ovarian): > 100 µM
TGI (UACC-257 melanoma): > 100 µM
TGI (SR leukemia): > 100 µM
TGI (786-0 renal): > 100 µM

COC1C2C[C@@H](O)CCC2C(C(=O)OCCl)C[C@H]1O (stereo partly specified)
TGI (OVCAR-8 ovarian): > 100 µM
TGI (HL-60(TB) leukemia): > 100 µM
TGI (A549 NSCLC): > 100 µM
TGI (SW-620 colon): > 100 µM
TGI (OVCAR-4 ovarian): > 100 µM
TGI (UACC-257 melanoma): > 100 µM
TGI (SR leukemia): > 100 µM
TGI (786-0 renal): > 100 µM

NC(=O)c1ccc2c(c1)-c1nc-2nc2[n-]c(nc3nc(nc4[n-]c(n1)c1ccc(C(N)=O)cc41)-c1ccc(C(N)=O)cc1-3)c1ccc(C(N)=O)cc21.[Co+2]
GI50 (OVCAR-8 ovarian): > 50000 nM
TGI (OVCAR-8 ovarian): > 50 µM
GI50 (HL-60(TB) leukemia): 7120 nM
TGI (HL-60(TB) leukemia): > 50 µM
GI50 (A549 NSCLC): > 50 µM
TGI (A549 NSCLC): > 50 µM
GI50 (SW-620 colon): 26.9 µM
TGI (SW-620 colon): > 50 µM
GI50 (OVCAR-4 ovarian): > 50000 nM
TGI (OVCAR-4 ovarian): > 50 µM
GI50 (OVCAR-5 ovarian): > 50 µM
TGI (OVCAR-5 ovarian): > 50 µM
GI50 (UACC-257 melanoma): > 50000 nM
TGI (UACC-257 melanoma): > 50 µM
GI50 (SR leukemia): 33.3 µM
TGI (SR leukemia): > 50 µM
GI50 (786-0 renal): 19500 nM
TGI (786-0 renal): > 50 µM
